From patent US20260276656A1, “GUT MICROBIOTA-RELATED METHODS FOR TREATING DEMENTIA AND AGE-DEPENDENT COGNITIVE DECLINE” (Albert-Ludwigs-Universitat Freiburg, priority 2019, published 2026) come the findings set out here.

SMILES strings stand for the structures. “Also recorded” adds a separate entry of the source.

For experiment [1], the system named is C57BL/6J mice. Kind of experiment: Novel object recognition (NOR) test (recognition memory). Format: in vivo, mouse. Conditions: for recognition memory (Novel Object Recognition test): systemic (intraperitoneal) injection, FIG. 11 right; for NOR test performance: 5 mg/kg i.p. 1 h before. The method, then:
In order to acutely deplete the gut microbiota, 15-16 months old SPF males were treated via oral gavage with a mixture of antibiotics (ABX), containing Cefoxitin (Santa Cruz Biotechnology), Gentamicin (Sigma-Aldrich) Metronidazole (Sigma-Aldrich), and Vancomycin (Hikma-pharma), each 10 mg/kg in sterile 1×PBS, for three consecutive days. On the fourth day, the mice were treated with one dose of Clindamycin hydrochloride (33.3 mg/kg) (Sigma-Aldrich). Fecal microbiota transplantations (FMTs) were started 24 h later. To deplete csf1-dependent cells in vivo, including microglia, mice were provided with CSF1R-inhibitor PLX5622 (Plexxicon Inc.) mixed into AIN-76A standard chow at 1200 mg/kg (Research Diets Inc.) ad libitum. Respective controls received AIN-76A standard chow. Mice were injected with 5 mg/kg δ-valerobetaine (MCAT, Germany) 1 h before behavioral testing.
For microbiota depletion studies, SPF mice were treated with 1 mg/ml of ampicillin (Auromedics), neomycin sulfate (Fisher), streptomycin (Sigma) and 0.5 mg/ml of vancomycin (Sagent) in the drinking water for 4-5 weeks (Khosravi et al., 2014). These mice were recolonized via FMT, which was achieved by oral gavage of a faecal slurry. Recipient mice had the food removed from the cage for 2 h prior to FMT. The faecal slurry was obtained by pooling faecal pellets from 8-14 donor mice. The pellets were weighed and resuspended by vortexing for 1 min in 1 mL PBS per 300 mg of faeces. After pelleting larger particles by centrifugation at 500×g for 5 min, the supernatant was collected for FMT. Each recipient mouse received 150 μl of faecal slurry by oral gavage. The remaining slurry was stored at −80° C. for 16S rRNA sequencing. Following FMT, the cages of recipient mice were replenished with dirty bedding and fresh faecal pellets from donor mice once and twice a week, respectively. Faecal pellets for 16S rRNA sequencing were collected the day before FMT and at the end of the experiment and were stored at −80° C. for DNA extraction. For re-colonization of ABX treated mice, FMTs from 8 weeks old or 15-16 months old males were undergone. Fresh fecal pellets are collected under a sterile hood and directly thoroughly homogenized in 0.1% L-Cysteine hydrochloride monohydrate in 1×PBS in order to maintain anaerobic microbes. The homogenates were spun down for 1 min, 200 g at 4° C. and the turbid supernatant was used to orally and rectally gavage the recipient mice. The FMT was performed twice 72 h apart.
NNN-trimethyl-5-aminovalerate was dissolved in 0.9% NaCl and administered i.p. at a dose of 200 mg/kg in a volume of 10 ml/kg. As control the vehicle NaCl was injected.
Mice were tested 40 min after drug- or vehicle injection or 4 weeks after FMT. We first performed the training run for the Novel-object recognition test, followed by the T maze test and then 6 h after the training session mice were tested in the Novel object recognition test. Spatial working memory was tested using the continuous spontaneous alternation task in a T-maze as described previously (Spowart-Manning, L. et al). Briefly, animals were set into the base of a T-maze and allowed to explore a randomly assigned T-maze arm until it returned to the base arm. Subsequently, the blocked arm was opened, and the animal was allowed to explore the complete maze. Once one arm of the T-maze was entered, the other arm was blocked until the animal returned to the base arm. Then, the exit of the base arm was blocked for 5 s and the animal was allowed to explore the maze again. The experiment was stopped after 14 free choice arm entries. Arm entries were scored as alternations if an animal chose the opposing arm compared to the arm visited immediately prior to the scored instance. The Novel Object Recognition (NOR) task was applied to evaluate recognition memory as published previously (Antunes, M. & Biala, G. et al). During the habituation phase, each mouse was allowed to explore two similar objects within a total exploration time of 20 s. […]

The test system of experiment [2] is Layer 2/3 pyramidal cells of the infralimbic or prelimbic mPFC. Put plainly: Whole-cell patch-clamp recordings of spontaneous EPSCs and IPSCs in acute prefrontal brain slices. Particulars: pre-incubation with 10 μM. The format is cell-based, mouse. The method, then: Mice were injected intraperitoneally with ketamine/xylazine (100/13 mg/kg body weight) and intracardially perfused with ice-cold solution containing (in mM) NaCl 87, NaHCO325, KCl 2.5, NaH2PO4 1.25, glucose 10, sucrose 75, CaCl2 0.5 and MgCl2 7 (aerated with 95% O2/5% CO2). 300 μm thick frontal sections of the PFC were prepared with a vibratome and stored in artificial cerebrospinal fluid (ACSF) containing in mM: NaCl 125, NaHCO3 25, KCl 2.5, NaH2PO4 1.25, Glucose 25, CaCl2 2 and MgCl2 1 (equillibrated with 95% O2/5% CO2) first at 34° C. for 30 min, then at room temperature. Patch-clamp recordings were targeted to pyramidal neurons identified by their characteristic soma shape using pipettes pulled from borosilicate glass tubing and filled with a Cs-based pipette solution containing (in mM): CsCl 20, MgCl2 2, Na2ATP 2, QX-314 1, Hepes 10, TEACl 8, Cs-Gluconate 110. Recordings were performed at 30 to 34° C. using an Axopatch Multiclamp amplifier in voltage clamp mode. To isolate spontaneous excitatory postsynaptic currents (EPSCs), the resting membrane potential was held at −70 mV (the reversal potential of inhibitory postsynaptic currents (IPSCs). To record spontaneous IPSCs, the cell was held at 0 mV (the reversal potential of EPSCs). Both IPSCs and EPSCs were recorded from the same neurons in slices pre-incubated in 10 μM 6-valerobetaine or in control slices kept in ACSF. Spontaneous events were identified visually from lowpass-filtered data (<1 kHz). Amplitudes were measured from average events.

For the compound `C[N+](C)(C)CCCCC(=O)[O-]` [NNN-trimethyl-5-aminovalerate, 5-(trimethylammonio) pentanoate], the “NOR: improvement in learning and memory after FMT from young mice” value in experiment [1] (old mice (15-16 months) +ABX+yFMT, 5 mg/kg i.p. 1 h before testing, FIG. 10G-H) was “abolished”. For the same compound, the “recognition memory (Novel Object Recognition test)” value in experiment [1] (old mice (20-24-month-old)) is “no additional impairing effects”. For the same compound, in experiment [1] (old mice that had received gut microbiota from old mice (old+ABX+oFMT), FIG. 10G-H), the NOR test performance entry is “no additional deteriorating effect”. The NOR test performance entry in experiment [1] (young adult mice (8 weeks), versus vehicle, FIG. 10C-D) is “significantly worse”. Also, the “recognition memory (Novel Object Recognition test)” value in experiment [1] (young mice (2-month-old), PBS control) was “reduced”. Also, in experiment [2], the “amplitude of spontaneous EPSCs” value was “unaltered; also recorded: no significant effect”, the “amplitude of spontaneous IPSCs” value is “not the amplitude; also recorded: no significant effect”, the “frequency of spontaneous EPSCs” value is “unaltered” and the “frequency of spontaneous IPSCs” value is reported as “increased”.
